Counter-ions that a name gives are not always drawn.
Legend:
HCT116 [1] = conditions: 72 h
Method in brief: (§1)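 Four-parameter Hill fits gave IC50 and maximal efficacy. The data were CellTiter-Glo luminescence readings in HCT116 cells, normalized so that vehicle was 0% and positive control was -100%, with pattern correction afterwards.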

HCT116 [2] = assay: efficacy (maximum % inhibition of viability vs DMSO); higher = more cytotoxic; conditions: 72 h
Method in brief: as §1

Compound | IC50 cell viability (HCT116 [1]; ICRF193 0 nM) | IC50 cell viability (HCT116 [1]; ICRF193 200 nM) | efficacy (HCT116 [2]; ICRF193 0 nM) | efficacy (HCT116 [2]; ICRF193 200 nM)
CNCCCCOc1ccccc1Cc1ccccc1 [Bifemelane] | 20.6 µM | 14.6 µM | 40.6% | 49.6%
CCc1nc(N)nc(N)c1-c1ccc(Cl)cc1 [Pyrimethamine] | 11.6 µM | 9.2 µM | 106% | 93.4%
C[C@]12CCC(=O)C=C1[C@@H]1C[C@@H]1[C@H]1[C@@H]3[C@@H]4C[C@@H]4[C@@]4(CCC(=O)O4)[C@@]3(C)CC[C@@H]12 [Drospirenone] | 18.3 µM | 23.1 µM | 51.3% | 49.1%
CCc1c(Cl)c(O)c(Cl)c(O)c1C(=O)O[C@H]1[C@H](O)[C@H](OC)[C@H](OC/C2=C\C=C\C[C@H](O)/C(C)=C/[C@H](CC)[C@@H](O[C@@H]3OC(C)(C)[C@@H](OC(=O)C(C)C)[C@H](O)[C@@H]3O)/C(C)=C/C(C)=C/C[C@@H]([C@@H](C)O)OC2=O)O[C@@H]1C [Fidaxomicin] | 20.6 µM | 20.6 µM | 103% | 53.2%
C[C@H]1[C@H](OC(=O)CCC(=O)O)O[C@@H]2O[C@@]3(C)CC[C@H]4[C@H](C)CC[C@@H]1[C@@]24OO3 [ARTESUNATE] | 1.64 µM | 0.73 µM | 93.1% | 86.8%
Clc1ccccc1C(c1ccccc1)(c1ccccc1)n1ccnc1 [Clotrimazole] | 18.3 µM | 16.4 µM | 102% | 94.7%
CO[C@H]1C[C@H](O[C@H]2[C@H](C)O[C@@H](O[C@@H]3/C(C)=C/C[C@@H]4C[C@@H](C[C@]5(C=C[C@H](C)[C@@H](C6CCCCC6)O5)O4)OC(=O)[C@@H]4C=C(C)[C@@H](O)[C@H]5OC/C(=C\C=C\[C@@H]3C)[C@]54O)C[C@@H]2OC)O[C@@H](C)[C@@H]1O [DORAMECTIN] | 13 µM | 7.3 µM | 112% | 106%
Clc1ccc(C(Cn2ccnc2)OCc2c(Cl)cccc2Cl)c(Cl)c1 (stereo not given) [Isoconazole nitrate] | 25.9 µM | 18.3 µM | 87.5% | 82.6%
O=C(CCCCCCC(=O)Nc1ccccc1)NO [Vorinostat (SAHA)] | 3.66 µM | 2.31 µM | 109% | 101%
CN1CCCN(C(c2ccccc2)c2ccc(Cl)cc2)CC1 (stereo not given) [Homochlorcyclizine] | 20.6 µM | 29.1 µM | 71.7% | 84.3%
CC[C@@H]1/C=C(\C)C[C@H](C)C[C@H](OC)[C@H]2O[C@@](O)(C(=O)C(=O)N3CCCC[C@H]3C(=O)O[C@H](/C(C)=C/[C@@H]3CC[C@H](Cl)[C@H](OC)C3)[C@H](C)[C@@H](O)CC1=O)[C@H](C)C[C@@H]2OC [Pimecrolimus] | 14.6 µM | 18.3 µM | 62.4% | 63.4%
C[C@@]12C(=O)OC(=O)[C@]1(C)[C@H]1CC[C@@H]2O1 [Cantharidin] | 5.8 µM | 4.11 µM | 74.9% | 77.2%
Cc1c(Cl)c(C)[n+]([O-])c(Cl)c1-c1noc(-c2cc(O)c(O)c([N+](=O)[O-])c2)n1 [Opicapone] | > 45.8 µM | 29.1 µM |  | 98.7%
C#C[C@]1(O)CC[C@H]2[C@@H]3CCC4=CC(=O)CCC4=C3C=C[C@@]21CC [Gestrinone] | 25.9 µM | > 45.8 µM | 56.7% | 
CNCCCC1c2ccccc2C=Cc2ccccc21 [Protriptyline hydrochloride] | 29.1 µM | 29.1 µM | 68.2% | 95.4%
COc1cccc2c1C(=O)c1c(O)c3c(c(O)c1C2=O)C[C@@](O)(C(=O)CO)C[C@@H]3O[C@H]1C[C@H](N2CCO[C@H](OC)C2)[C@H](O)[C@H](C)O1 [Nemorubicin] | 0.0259 µM | 0.0291 µM | 68.6% | 76.1%
C#C[C@]1(OC(C)=O)CC[C@H]2[C@@H]3CCC4=CC(=NO)CC[C@@H]4[C@H]3CC[C@@]21CC (mixture of isomers) [Norgestimate] | 18.3 µM | 29.1 µM | 84% | 102%
CC(C)NCC(O)COc1ccc(CCOCC2CC2)cc1 (stereo not given) [Betaxolol HCl] | > 45.8 µM | 5.17 µM |  | 76.2%
Oc1c(Cl)cc(Cl)cc1Sc1cc(Cl)cc(Cl)c1O [Bithionol] | 18.3 µM | 20.6 µM | 92.2% | 108%
COc1ccc(CCN2CCC(Nc3nc4ccccc4n3Cc3ccc(F)cc3)CC2)cc1 [Astemizole] | 20.6 µM | 16.4 µM | 108% | 102%
CC(C)C[C@H](NC(=O)CNC(=O)c1cc(Cl)ccc1Cl)B(O)O [Ixazomib] | 0.0651 µM | 0.058 µM | 92.8% | 92.6%
CC(C)(C)CC(=O)OCC(=O)[C@@]1(O)CC[C@H]2[C@@H]3CCC4=CC(=O)C=C[C@]4(C)[C@H]3[C@@H](O)C[C@@]21C [Prednisolone tebutate] | > 45.8 µM | 29.1 µM |  | 41.9%
CN1CCN(CCCN2c3ccccc3Sc3ccc(Cl)cc32)CC1 [Prochlorperazine dimaleate] | 25.9 µM | 20.6 µM | 89.6% | 81.1%
C[n+]1c2cc(N)ccc2cc2ccc(N)cc21.Nc1ccc2cc3ccc(N)cc3nc2c1 [Acriflavine hydrochloride] | 16.4 µM | 23.1 µM | 50.4% | 56.5%
CN1CCN(CCCN2c3ccccc3Sc3ccccc32)CC1 [Perazine] | 31.6 µM | 35.5 µM | 86.5% | 95.2%
CCCC(=O)OC[C@@H](OC(=O)CCC)[C@@H](OC(=O)CCC)[C@H](Cn1c2nc(=O)[nH]c(=O)c-2nc2cc(C)c(C)cc21)OC(=O)CCC [Riboflavin tetrabutyrate] | 29.1 µM | 18.3 µM | 64.5% | 82.1%
CC(=O)N(O)CCCCCNC(=O)CCC(=O)N(O)CCCCCNC(=O)CCC(=O)N(O)CCCCCN [Deferoxamine mesylate] | 29.1 µM | 29.1 µM | 99.1% | 105%

The next lines start with results.

IC50 cell viability (HCT116 [1]; ICRF193 0 nM) | IC50 cell viability (HCT116 [1]; ICRF193 200 nM) | Compound | efficacy (HCT116 [2]; ICRF193 0 nM) | efficacy (HCT116 [2]; ICRF193 200 nM)
16.4 µM | 16.4 µM | COc1ccc(-n2nc(CCC(=O)N(C)O)cc2-c2ccc(Cl)cc2)cc1 [Tepoxalin] | 93.4% | 88.3%
29.1 µM | 13 µM | NCCNc1ccc(NCCN)c2c1C(=O)c1ccncc1C2=O [Pixantronemaleate] | 83.2% | 82.2%
29.1 µM | 20.6 µM | NS(=O)(=O)c1ccc(-n2nc(C(F)(F)F)cc2-c2ccc(F)cc2)cc1 [Mavacoxib] | 56.9% | 51.5%
> 45.8 µM | 8.2 µM | C[C@@H](c1nc(-c2ccc(C#N)cc2)cs1)[C@](O)(Cn1cncn1)c1cc(F)ccc1F [Isavuconazole] |  | 45.8%
20.6 µM | 20.6 µM | C[C@@H](NCCCc1cccc(C(F)(F)F)c1)c1cccc2ccccc12 [Cinacalcet hydrochloride] | 87.6% | 94.6%
20.6 µM | 20.6 µM | CCCCCCCCCC(=O)OCCN1CCN(CCCN2c3ccccc3Sc3ccc(C(F)(F)F)cc32)CC1 [Fluphenazine decanoate dihydrochloride] | 81% | 99.6%
7.3 µM | > 45.8 µM | Cc1cc(-n2c(=O)[nH]c(=O)n(C)c2=O)ccc1Oc1ccc(S(=O)(=O)C(F)(F)F)cc1 [Toltrazuril (sulfone)] | 44.9% | 
> 45.8 µM | 20.6 µM | Cc1cc(-n2c(=O)[nH]c(=O)n(C)c2=O)ccc1Oc1ccc(SC(F)(F)F)cc1 [TOLTRAZURIL] |  | 41.6%
18.3 µM | 29.1 µM | O=c1[nH]c2ccccc2n1CCCN1CCN(C(c2ccccc2)c2ccccc2)CC1 [Oxatomide] | 73.2% | 84.5%
14.6 µM | 20.6 µM | CC(=O)Oc1ccc(C2(c3ccc(OC(C)=O)cc3)Oc3ccccc3NC2=O)cc1 [Bisoxatin acetate] | 66.7% | 89%
> 45.8 µM | 23.1 µM | CC(CCc1ccc(O)cc1)NCCc1ccc(O)c(O)c1 (stereo not given) [Dobutamine] |  | 83.3%
14.2 µM | 8.96 µM | Cc1ccc(C(=O)OCc2ccc([C@@H](CN)C(=O)Nc3ccc4cnccc4c3)cc2)c(C)c1 [Netarsudil] | 104% | 94.1%
20.6 µM | 29.1 µM | C=C1c2c(Cl)ccc(O)c2C(=O)C2=C(O)[C@]3(O)C(=O)C(C(N)=O)=C(O)[C@@H](N(C)C)[C@@H]3[C@@H](O)[C@H]12.O=C(O)c1cc(S(=O)(=O)O)ccc1O [Meclocycline sulfosalicylate] | 54.3% | 64%
20.6 µM | 13 µM | Cc1oncc1C(=O)Nc1ccc(C(F)(F)F)cc1 [Leflunomide] | 57.6% | 55.8%
18.3 µM | 29.1 µM | CC1(S(=O)(=O)O)CC(=O)c2ccccc2C1=O (stereo not given) [Menadione sodium bisulfite] | 102% | 40.7%
29.1 µM | 23.1 µM | CN(C)[C@@H](CCOc1cccc2ccccc12)c1ccccc1 [Dapoxetine] | 71.4% | 70.9%
18.3 µM | 29.1 µM | O=C(O)c1ccc(-n2nc(-c3ccccc3O)nc2-c2ccccc2O)cc1 [Deferasirox] | 99.7% | 109%
29.1 µM | 18.3 µM | Cc1cnc(C(=O)N[C@H]2CCCCC/C=C\[C@@H]3C[C@@]3(C(=O)NS(=O)(=O)C3CC3)NC(=O)[C@@H]3C[C@@H](Oc4nc5ccccc5c5ccccc45)CN3C2=O)cn1 [ABT-450] | 110% | 100%
2.06 µM | > 45.8 µM | CC(=O)Oc1ccc(C(c2ccc(OC(C)=O)cc2)c2ccccn2)cc1 [Bisacodyl] | 48.1% | 
18.3 µM | 20.6 µM | O=c1ccc2ccc(OCCCCN3CCN(c4cccc5sccc45)CC3)cc2[nH]1 [Brexpiprazole] | 102% | 106%
29.1 µM | > 45.8 µM | CC(C)=CCOc1ccc(/C=C/C(=O)c2ccc(OCC=C(C)C)cc2OCC(=O)O)cc1 [Sofalcone] | 108% | 
13 µM | 23.1 µM | CCc1c2c(nc3ccc(OC(=O)N4CCC(N5CCCCC5)CC4)cc13)-c1cc3c(c(=O)n1C2)COC(=O)[C@]3(O)CC [Irinotecan] | 79.8% | 102%
> 45.8 µM | 13 µM | CN(C)CCCN1c2ccccc2CCc2ccccc21 [Imipramine] |  | 40.6%
> 45.8 µM | 18.3 µM | O=C1C(O)=C([C@H]2CC[C@H](c3ccc(Cl)cc3)CC2)C(=O)c2ccccc21 [Atovaquone] |  | 54.1%
> 45.8 µM | 0.92 µM | NS(=O)(=O)c1cc2c(cc1C(F)(F)F)NC(Cc1ccccc1)NS2(=O)=O (stereo not given) [Bendroflumethiazide] |  | 68.8%
> 45.8 µM | 6.51 µM | CC(=O)OCC1=C(C(=O)O)N2C(=O)[C@@H](NC(=O)[C@H](N)c3ccccc3)[C@H]2SC1 [Cephaloglycin] |  | 61.5%
0.259 µM | 0.0206 µM | CC(=O)Nc1cccc(-n2c(=O)n(C3CC3)c(=O)c3c(Nc4ccc(I)cc4F)n(C)c(=O)c(C)c32)c1 [Trametinib] | 92.3% | 82.8%
> 45.8 µM | 23.1 µM | CCC(=O)c1ccc2c(c1)N(CCCN(C)C)c1ccccc1S2 [Propionylpromazine hydrochloride] |  | 60.1%

From the supplement of paper PMC12137928
